Laboratory results: patent US20160257697A1, “THIOPHENE-SUBSTITUTED TETRACYCLIC COMPOUNDS AND METHODS OFUSE THEREOF FOR THE TREATMENT OF VIRAL DISEASES” (priority 2013, published 2016)
Read-outs that look alike come from different tables or passages of the source.

What was measured:
Assay in all cases: microbe, parasite or virus in culture
Assay type in all cases: cell-based, Hepatitis C virus (HCV)
Conditions in all cases: Replicon Assay A
HCV replicon 1A = tested on: HCV replicon 1A
Procedure, shortened: (§1)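 HCV RNA levels were calculated from Ct values (minus intercept, divided by slope) of a Neo primer/probe standard curve, with cyclophilin quantified the same way. Cells were seeded at 2000/well and incubated with compound for 3 days in 5% serum and 0.5% DMSO.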

HCV replicon 1AY93H = tested on: HCV replicon 1AY93H
Procedure, shortened: as §1

HCV replicon 2B = tested on: HCV replicon 2B
Procedure, shortened: as §1

[1] = read-out: 1A Y93H IC50, replicon 1AY93H
[2] = read-out: 1A Y93H IC50, HCV replicon 1A Y93H
[3] = read-out: 2B IC50, HCV replicon 2B
[4] = Hepatitis C virus, HCV replicon 1A
[5] = Hepatitis C virus, read-out: 1A Y93H IC50, HCV replicon 1A Y93H
[6] = Hepatitis C virus, read-out: 2B IC50, HCV replicon 2B

| SMILES | IC50 (HCV replicon 1A; replicon 1A) [nM] | IC50 (HCV replicon 1AY93H; [1]) [nM] | IC50 (HCV replicon 2B; read-out: 2B IC50, replicon 2B) [nM] | IC50 (HCV replicon 1A; HCV replicon 1A) [nM] | IC50 (HCV replicon 1AY93H; [2]) [nM] | IC50 (HCV replicon 2B; [3]) [nM] | further results |
| --- | --- | --- | --- | --- | --- | --- | --- |
| CCOC(C)[C@H](NC(=O)OC)C(=O)N1CCC[C@H]1c1ncc(-c2cc(F)c3c(c2)OC(c2cc(C)c(C)s2)n2c-3cc3cc(-c4cnc([C@@H]5CCCN5C(=O)[C@@H](NC(=O)OC)C(C)C)[nH]4)ccc32)[nH]1 (single isomer, unassigned) [Compound 80] | 0.0027 | 4.87 | 3.16 | – | – | – | – |
| COC(=O)N[C@H](C(=O)N1CCC[C@H]1c1cnc(-c2ccc3c(c2)cc2n3C(c3cc4ccccc4s3)Oc3cc(-c4cnc([C@@H]5CCCN5C(=O)[C@@H](NC(=O)OC)C5CCOCC5)[nH]4)ccc3-2)[nH]1)C1CCOCC1 (single isomer, unassigned) [Compound 810] | – | – | – | 0.004 | 0.018 | 0.005 | – |
| CCc1ccc(C2Oc3cc(-c4cnc([C@@H]5CCCN5C(=O)[C@@H](NC(=O)OC)C(C)C)[nH]4)cc(F)c3-c3cc4cc(-c5cnc([C@@H]6CCCN6C(=O)C(NC(=O)OC)C6C[C@@H](C)O[C@@H](C)C6)[nH]5)ccc4n32)s1 (single isomer, unassigned) [Compound 142] | 0.002 | 0.25 | 0.48 | – | – | – | – |
| COC(=O)NC(C(=O)N1CCC[C@H]1c1ncc(-c2ccc3c(c2)cc2n3C(c3ccc(C4CC4)s3)Oc3cc(-c4cnc([C@@H]5CCCN5C(=O)[C@@H](NC(=O)OC)C(C)C)[nH]4)cc(F)c3-2)[nH]1)C1CCOC(C)(C)C1 (single isomer, unassigned) [Compound 221] | 0.0022 | 0.18 | 0.21 | – | – | – | – |
| COC(=O)N[C@H](C(=O)N1CCC[C@H]1c1ncc(-c2ccc3c(c2)OC(c2cc4ccccc4s2)n2c-3cc3cc(-c4cnc([C@@H]5C[C@H]6C[C@H]6N5C(=O)[C@@H](NC(=O)OC)C(C)C)[nH]4)ccc32)[nH]1)C(C)C (single isomer, unassigned) [Compound 608] | – | – | – | 0.0035 | 0.0529 | 0.031 | – |
| COC(=O)N[C@H](C(=O)N1CCC[C@H]1c1ncc(-c2ccc3c(c2)O[C@@H](c2cc4cc(OC)ccc4s2)n2c-3cc3cc(-c4cnc([C@@H]5CCCN5C(=O)[C@@H](NC(=O)OC)C(C)C)[nH]4)ccc32)[nH]1)C(C)C [Compound 758] | – | – | – | – | – | – | IC50 (HCV replicon 1A; [4]): 0.005 nM; IC50 (HCV replicon 1AY93H; [5]): 0.17 nM; IC50 (HCV replicon 2B; [6]): 0.43 nM |
| CCc1ccc(C2Oc3cc(-c4cnc([C@@H]5CCCN5C(=O)C(NC(=O)OC)C5CCOC(C)(C)C5)[nH]4)cc(F)c3-c3cc4cc(-c5cnc([C@@H]6CCCN6C(=O)[C@@H](NC(=O)OC)C(C)C)[nH]5)ccc4n32)s1 (single isomer, unassigned) [Compound 160] | 0.114 | 24.9 | 19.1 | – | – | – | – |
| COC(=O)N[C@H](C(=O)N1CCC[C@H]1c1nc(-c2ccc3c(c2)OC(c2ccc(C)s2)n2c-3cc3cc(-c4c[nH]c([C@@H]5NCCN5C(=O)[C@@H](NC(=O)OC)C(C)C)n4)ccc32)c[nH]1)C(C)C (single isomer, unassigned) [Compound 700] | – | – | – | 0.015 | 1.17 | 0.39 | – |
| CCc1ccc(C2Oc3cc(-c4cnc([C@@H]5CCCN5C(=O)[C@@H](NC(=O)OC)C(C)C)[nH]4)cc(F)c3-c3cc4cc(-c5cnc([C@@H]6CCCN6C(=O)C(NC(=O)OC)C6CCOC(C)(C)C6)[nH]5)ccc4n32)s1 (single isomer, unassigned) [Compound 153] | 0.0021 | 0.422 | 0.51 | – | – | – | – |
| COC(=O)NC(C(=O)N1CCC[C@H]1c1ncc(-c2cc(F)c3c(c2)OC(c2ccc(C4CC4)s2)n2c-3cc3cc(-c4cnc([C@@H]5C[C@H]6C[C@H]6N5C(=O)[C@@H](NC(=O)OC)C(C)C)[nH]4)ccc32)[nH]1)C(C)(C)F (single isomer, unassigned) [Compound 98] | 0.0011 | 0.06 | – | – | – | – | IC50 (HCV replicon 2B; Hepatitis C virus, read-out: 2B IC50 (nM), replicon 2B): 2.16 nM |
| COC(=O)NC(C(=O)N1CCC[C@H]1c1ncc(-c2cc(F)c3c(c2)OC(c2ccc(C4CC4)s2)n2c-3cc3cc(-c4cnc([C@@H]5CCCN5C(=O)C(NC(=O)OC)C(C)(C)F)[nH]4)ccc32)[nH]1)C(C)(C)F (single isomer, unassigned) [Compound 110] | – | 1.97 | 2.43 | – | – | – | IC50 (HCV replicon 1A; Hepatitis C virus, replicon 1A): 0.002 nM |
| COC(=O)N[C@H](C(=O)N1CCC[C@H]1c1cnc(-c2ccc3c(c2)cc2n3C(c3cc4ccccc4s3)Oc3cc(-c4cnc([C@@H]5CCCN5C(=O)[C@@H](NC(=O)OC)C5CCOCC5)[nH]4)ccc3-2)[nH]1)C1CCOCC1 (single isomer, unassigned) [Compound 809] | – | – | – | 0.016 | 0.82 | 4.2 | – |
| COC(=O)N[C@H](C(=O)N1C2C[C@@H]2C[C@H]1c1nc(-c2ccc3c(c2)cc2n3C(c3ccc(Cl)s3)Oc3cc(-c4c[nH]c([C@@H]5C[C@H]6C[C@H]6N5C(=O)[C@@H](NC(=O)OC)C(C)C)n4)ccc3-2)c[nH]1)C(C)C (mixture of isomers) [Compound 710] | – | – | – | – | – | – | IC50 (HCV replicon 1A; [4]): 0.05 nM; IC50 (HCV replicon 1AY93H; [5]): 0.2 nM; IC50 (HCV replicon 2B; [6]): 1.08 nM |
